Source: US11654094B2, “Composition comprising benzoic acid amide compound and cyclodextrin solubilizing agent” (AMOREPACIFIC CORPORATION, priority 2017, dated 2023)
≈ marks a conversion by molar mass, not a printed value. Where two headings read alike, the source gives them in different places. Blank lines part the entries; values can stand above or below the compound they belong to.

How the values were obtained:
[1] = Solubility of DBAB for each type of cyclodextrin and their 1:1 combinations (amount of CD required); format: physicochemical; settings: single cyclodextrin or 1:1 weight ratio combination
Experimental: In order to investigate the solubility of one part by weight of DBAB for each type of cyclodextrin and the synergistic effect between cyclodextrins, the solubility of each of α-CD, γ-CD, HP-α-CD, HP-β-CD and HP-γ-CD and the solubility of their 1:1 weight ratio combinations was determined, as shown in Table 4 below.

[2] = Solubility of DBAB at various weight ratios of HP-β-CD and γ-CD, total CD 0.5%; settings: 0.2% by weight of each of HP-β-CD and γ-CD, test method of Table 5
Experimental: In this case, 10% by weight of PEG.PPG-17.6 copolymer, 0.1% by weight of DBAB, 39.4% by weight of propanediol, 50% by weight of water and 0.5% by weight of the total CD were used.
In addition, the test method of Table 5 was carried out by using 0.2% by weight of each of HP-β-CD and γ-CD with an addition of 0.1% by weight of HP-α-CD, HP-γ-CD, α-CD or β-CD.

[3] = Amount of solubilizers needed to dissolve DBAB in water (synergy of cyclodextrin with other solubilizers); format: physicochemical; settings: for solubility of the composition: 0.1% by weight DBAB
Description: The synergistic effect of cyclodextrin as a solubilizer of the present invention in combination with other solubilizers (a second solubilizer and a third solubilizer) was investigated.

[4] = Solubility of DBAB achieved by solvents; format: physicochemical; settings: organic solvent or mixture
[5] = pH and solubility of HP-β-CD/DBAB compositions; format: physicochemical; settings: HP-β-CD and DBAB mixed at a weight ratio of 1:1
Description: In addition to investigation of the solubility improvement with varying pH, the solubility of the composition was investigated with varying the pH of the composition and the weight ratio of HP-β-CD and DBAB as shown in Table 3 below.

MITF = settings: through the cAMP-PKA-CREB signal pathway; background statement; cited from earlier work
melanin synthesis = settings: background statement; verified through cell and artificial skin tests; cited from earlier work

- amount of CD required (weight ratio CD:DBAB, x:1) to transparently dissolve one part by weight of DBAB [1]: >20
- effect on solubility of DBAB of adding 0.1% by weight of a further cyclodextrin [2]: did not improve the solubility
Compound: OC[C@H]1O[C@@H]2O[C@H]3[C@H](O)[C@@H](O)[C@@H](O[C@H]4[C@H](O)[C@@H](O)[C@@H](O[C@H]5[C@H](O)[C@@H](O)[C@@H](O[C@H]6[C@H](O)[C@@H](O)[C@@H](O[C@H]7[C@H](O)[C@@H](O)[C@@H](O[C@H]8[C@H](O)[C@@H](O)[C@@H](O[C@H]1[C@H](O)[C@H]2O)O[C@@H]8CO)O[C@@H]7CO)O[C@@H]6CO)O[C@@H]5CO)O[C@@H]4CO)O[C@@H]3CO [β, β-cyclodextrin]

- PEG.PPG-17.6 copolymer replaced by 0.6% of HP-β-CD ([3]; composition comprising DBAB): 20%
- PEG.PPG-17.6 copolymer replaced by 0.1% by weight of HP-β-CD ([3]; composition with 0.1% by weight of DBAB): 20 % by weight
- amount of CD required (weight ratio CD:DBAB, x:1) to transparently dissolve one part by weight of DBAB [1]: 20
Compound: hydroxypropyl-β-cyclodextrin [HP-β-CD]

- amount of CD required (weight ratio CD:DBAB, x:1) to transparently dissolve one part by weight of DBAB [1]: >20
Compound: hydroxypropyl-γ-cyclodextrin [HPγ]

- solubility of the composition ([3]; 30% by weight PEG.PPG-17.6 copolymer, 0.6% by weight HP-β-CD): transparently dissolved
- solubility of the composition ([3]; 50% by weight PEG.PPG-17.6 copolymer, balance water): transparently dissolved
- solubility ([4]; PEG.PPG-17.6 copolymer, read-out: solubility of DBAB achieved by PEG.PPG-17.6 copolymer): 81.3 mg/mL (≈ 186 mM)
- solubility ([4]; propanediol, read-out: solubility of DBAB achieved by propanediol): 5.92 mg/mL (≈ 13.5 mM)
- pH at which the composition has improved solubility [5]: ≥ 12.72
Compound: COc1cc(OC)c(C23CC4CC(CC(C4)C2)C3)cc1C(=O)NCc1ccc(O)cc1O [DBAB, 5-adamantan-1-yl-N-(2,4-dihydroxybenzyl)-2,4-dimethoxy-benzoic acid amide]
- expression of MITF (MITF): reduces the expression of MITF
- melanin synthesis (melanin synthesis): inhibiting melanin synthesis

Compound: OC[C@H]1O[C@@H]2O[C@H]3[C@H](O)[C@@H](O)[C@@H](O[C@H]4[C@H](O)[C@@H](O)[C@@H](O[C@H]5[C@H](O)[C@@H](O)[C@@H](O[C@H]6[C@H](O)[C@@H](O)[C@@H](O[C@H]7[C@H](O)[C@@H](O)[C@@H](O[C@H]1[C@H](O)[C@H]2O)O[C@@H]7CO)O[C@@H]6CO)O[C@@H]5CO)O[C@@H]4CO)O[C@@H]3CO [α, α-cyclodextrin]
- amount of CD required (weight ratio CD:DBAB, x:1) to transparently dissolve one part by weight of DBAB [1]: >20
- effect on solubility of DBAB of adding 0.1% by weight of a further cyclodextrin [2]: did not improve the solubility

- amount of CD required (weight ratio CD:DBAB, x:1) to transparently dissolve one part by weight of DBAB [1]: >20
- effect on solubility of DBAB of adding 0.1% by weight of a further cyclodextrin [2]: did not improve the solubility
Compound: hydroxypropyl-α-cyclodextrin [HPα]
